Key:
KB 3-1 = assay: In vitro cytotoxicity using human epidermoid carcinoma (KB-3-1) cells; type: functional, cell-based
KB = assay: In vitro cytotoxicity using human epidermoid carcinoma (KB-A1) cells; type: functional, cell-based
L1210 = assay: In vitro cytotoxicity using murine leukemia L1210 cells from american type culture collection.; type: functional, cell-based; conditions: Mus musculus
[1] = Resistant Factor against MDR cell lines. Value expressed as ratio of IC50 on the resistant cell and on the corresponding sensitive cells.; type: functional

Row | Structure (SMILES) | IC50 (KB 3-1) [nM] | IC50 (KB) [nM] | IC50 (L1210) [nM] | RF [1]
1 | COc1cccc2c1C(=O)c1c(O)c3c(c(O)c1C2=O)C[C@@](O)(C(C)=O)C[C@@H]3OC1CC(Cl)C(N=[N+]=[N-])C(C)O1 (stereo partly specified) | 1610 | 2760 | 1370 | 1.7
2 | COc1cccc2c1C(=O)c1c(O)c3c(c(O)c1C2=O)C[C@@](O)(C(C)=O)C[C@@H]3OC1CC(Cl)C(NC(=O)C(F)(F)F)C(C)O1 (stereo partly specified) | 550 | 3790 | 500 | 6.9
3 | COc1cccc2c1C(=O)c1c(O)c3c(c(O)c1C2=O)C[C@@](O)(C(C)=O)C[C@@H]3O[C@H]1C[C@H](N)[C@H](O)[C@H](C)O1 [DAUNORUBICIN] | 7 | 2070 | 33 | 295.7
4 | COc1cccc2c1C(=O)c1c(O)c3c(c(O)c1C2=O)C[C@@](O)(C(=O)CO)C[C@@H]3O[C@H]1C[C@H](N)[C@H](O)[C@H](C)O1 [DOXORUBICIN] | 21 | 7010 | 33 | 333.8
